US20220348565A1, “PHARMACEUTICAL COMPOUNDS” (SENTINEL ONCOLOGY LIMITED, priority 2019, published 2022)

Columns and labels:
[1] = Mouse PK, brain exposure after p.o. dosing; format: in vivo, Male CD-1 mice
Description: (§1) Atropisomers A-2 and A-3 were evaluated in an in vivo mouse model to determine brain and plasma concentrations following p.o. and i.v. dosing.
(§2) Male CD-1 mice were dosed with the compounds of Examples A-2 and A-3, either by i.v. administration (2 mg/kg) or by p.o. administration (10 mg/kg). Eight samples were taken for analysis in the i.v. leg at 2, 10, 30 min, 1, 2, 4, 8, and 24 (for i.v) and 9 samples in the p.o. leg at 15, 30 min, 1, 2, 4, 8, 24, 48 and 72 hrs.
(§3) The compounds of Examples A-2 and A-3 were both formulated in 10% DMSO/90% hydroxypropyl-beta-cyclodextrin (20% w/v in water) for i.v. and p.o. dosing. N =3 mice per time point.
(§4) Post dosing, terminal blood samples were taken from individual animals and delivered into labelled polypropylene tubes containing anticoagulant (EDTA). The samples were held on wet ice for a maximum of 30 min while sampling of all the animals in the cohort was completed. The blood samples were centrifuged for plasma (4° C., 21100 g for 5 min) and the resulting plasma transferred into corresponding labelled tubes. Terminal brains from each PO dosed animal were excised, rinsed with saline and placed into pre-weighed labelled polypropylene tubes and the samples re-weighed prior to storage.
(§5) Quantitative bioanalysis was carried out using liquid chromatography—mass spectroscopy was performed. The results are shown in Tables 14, 15 and 16 below and in FIGS. 12 to 15.

PLK4 catalytic domain = target: T1, PLK4 catalytic domain (Homo sapiens, UniProt O00444); assay: DiscoverX KinomeScreen competition binding assay, PLK4; details: read-out: % Ctrl @ 3 μM
T1 construct: purchased DiscoverX; host or cells: T7 phage in E. coli (BL21-derived) or HEK-293
Description: (§6) Atropisomer A-2 has been tested for off-target activity against a panel of ninety-seven kinases distributed across the kinome at a concentration of 3 μM using the DiscoverX KinomeScreen assay. The DiscoverX KinomeScreen assay is a site-directed competition binding assay which measures the binding affinity of a compound to a kinase, by use of a solid supported control compound which can bind or capture the kinases in solution. In the absence of a kinase-inhibitor test compound, all of the kinase will bind to the solid support. If a kinase-inhibitor test compound is added to the assay mix, the amount of kinase binding to the solid support will be reduced, the extent of reduction being dependent on the potency of the test compound as a kinase inhibitor. […] For most assays, kinase-tagged T7 phage strains were grown in parallel in 24-well blocks in an E. coli host derived from the BL21 strain. […] The kinase concentration in the eluates was measured by qPCR. […] The strength of binding of the test molecule to the kinase can be expressed as the percent control (% Ctrl) The compound(s) were screened at 3000 nM concentration, and results for primary screen binding interactions are reported as ‘% Ctrl’, where lower numbers indicate stronger hits in the matrix on the following page(s). […]

PLK1 catalytic domain = target: T2, PLK1 catalytic domain (Homo sapiens, UniProt P53350); assay: DiscoverX KinomeScreen competition binding assay, PLK1; details: read-out: % Ctrl @ 3 μM
T2 construct: purchased DiscoverX; host or cells: T7 phage in E. coli (BL21-derived) or HEK-293
Description: as §6

[2] = Mouse PK, plasma after i.v. and p.o. dosing (oral bioavailability); format: in vivo, Male CD-1 mice; details: for half-life: read-out: T ½ (converted)
Description: as §1, §2, §3, §4, §5

[3] = Gravimetric solubility in water; format: physicochemical; details: thermodynamic from solid; gravimetric, water
Description: The solubility in water of the salts was measured using a gravimetric solubility protocol.
(§7) 1 ml of water was charged into crystallisation tubes. The solid was weighed into a tared glass vial, added in portions to the solutions and the vial weighed after each addition until a hazy solution was observed. The amount in mg was then calculated to give the solubility in mg/ml.
as §7, with “The solubility in water of the salts was measured using a gravimetric solubility protocol. Thus, 1” for “1”, “mg/mL.” for “mg/ml.”

[4] = target: T3, panel of ninety-seven kinases (Homo sapiens, UniProt Q9H093); assay: DiscoverX KinomeScreen kinase selectivity competition binding assay; details: NUAK2; read-out: % Ctrl @ 3 μM
T3 construct: purchased DiscoverX; host or cells: T7 phage in E. coli (BL21-derived) for most kinases; HEK-293 for the rest
Description: (§8) Atropisomer A-2 has been tested for off-target activity against a panel of ninety-seven kinases distributed across the kinome at a concentration of 3 μM using the DiscoverX KinomeScreen assay. The DiscoverX KinomeScreen assay is a site-directed competition binding assay which measures the binding affinity of a compound to a kinase, by use of a solid supported control compound which can bind or capture the kinases in solution. In the absence of a kinase-inhibitor test compound, all of the kinase will bind to the solid support. If a kinase-inhibitor test compound is added to the assay mix, the amount of kinase binding to the solid support will be reduced, the extent of reduction being dependent on the potency of the test compound as a kinase inhibitor. […] For most assays, kinase-tagged T7 phage strains were grown in parallel in 24-well blocks in an E. coli host derived from the BL21 strain. E. coli were grown to log-phase and infected with T7 phage from a frozen stock (multiplicity of infection=0.4) and incubated with shaking at 32° C. until lysis (90-150 minutes). The lysates were centrifuged (6,000×g) and filtered (0.2 μm) to remove cell debris. The remaining kinases were produced in HEK-293 cells and subsequently tagged with DNA for qPCR detection. Streptavidin-coated magnetic beads were treated with biotinylated small molecule ligands for 30 minutes at room temperature to generate affinity resins for kinase assays. The liganded beads were blocked with excess biotin and washed with blocking buffer (SeaBlock (Pierce), 1% BSA, 0.05% Tween 20, 1 mM DTT) to remove unbound ligand and to reduce non-specific phage binding. […] Test compounds were prepared as 40× stocks in 100% DMSO and directly diluted into the assay. All reactions were performed in polypropylene 384-well plates in a final volume of 0.02 ml. […] The beads were then re-suspended in elution buffer (1×PBS, 0.05% Tween 20, 0.5 μM non-biotinylated affinity ligand) and incubated at room temperature with shaking for 30 minutes. The kinase concentration in the eluates was measured by qPCR. Compounds that bind the kinase active site and directly (sterically) or indirectly (allosterically) prevent kinase binding to the immobilized ligand, will reduce the amount of kinase captured on the solid support. […] The strength of binding of the test molecule to the kinase can be expressed as the percent control (% Ctrl) The compound(s) were screened at 3000 nM concentration, and results for primary screen binding interactions are reported as ‘% Ctrl’, where lower numbers indicate stronger hits in the matrix on the following page(s). [formula] • negative control=DMSO (100% Ctrl) • positive control=control compound (0% Ctrl)

[5] = target: T4, panel of ninety-seven kinases (Homo sapiens, UniProt P08069); assay: as above; details: IGF1R; read-out: % Ctrl @ 3 μM
T4 construct: purchased DiscoverX; host or cells: T7 phage in E. coli (BL21-derived) for most kinases; HEK-293 for the rest
Description: as §8

[6] = target: T5, panel of ninety-seven kinases (Homo sapiens, UniProt P36897); assay: as above; details: TGFBR1; read-out: % Ctrl @ 3 μM
T5 construct: purchased DiscoverX; host or cells: T7 phage in E. coli (BL21-derived) for most kinases; HEK-293 for the rest
Description: as §8

[7] = target: T6, panel of ninety-seven kinases (Homo sapiens, UniProt P17612); assay: as above; details: PRKACA; read-out: % Ctrl @ 3 μM
T6 construct: purchased DiscoverX; host or cells: T7 phage in E. coli (BL21-derived) for most kinases; HEK-293 for the rest
Description: as §8

[8] = target: T7, panel of ninety-seven kinases (Homo sapiens, UniProt P29597); assay: as above; details: TYK2; read-out: % Ctrl @ 3 μM
T7 construct: purchased DiscoverX; host or cells: T7 phage in E. coli (BL21-derived) for most kinases; HEK-293 for the rest
Description: as §8

[9] = mouse, po, brain exposure, p.o. 10 mg/kg, male CD-1 mice
[10] = mouse, 2 mg/kg, 2 mq/Kq IV, male CD-1 mice, plasma
[11] = mouse, 10 mg/kg, 10 mq/Kq PO, male CD-1 mice, plasma

T2 sequence (P53350 53-305 limits assumed): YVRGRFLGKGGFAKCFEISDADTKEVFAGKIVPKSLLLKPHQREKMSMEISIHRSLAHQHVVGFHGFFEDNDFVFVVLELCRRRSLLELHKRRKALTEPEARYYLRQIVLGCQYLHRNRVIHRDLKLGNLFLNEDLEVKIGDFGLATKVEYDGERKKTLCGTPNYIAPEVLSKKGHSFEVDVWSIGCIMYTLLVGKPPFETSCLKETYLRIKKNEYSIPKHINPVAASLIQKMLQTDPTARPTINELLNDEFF
T5 sequence (P36897 34-503): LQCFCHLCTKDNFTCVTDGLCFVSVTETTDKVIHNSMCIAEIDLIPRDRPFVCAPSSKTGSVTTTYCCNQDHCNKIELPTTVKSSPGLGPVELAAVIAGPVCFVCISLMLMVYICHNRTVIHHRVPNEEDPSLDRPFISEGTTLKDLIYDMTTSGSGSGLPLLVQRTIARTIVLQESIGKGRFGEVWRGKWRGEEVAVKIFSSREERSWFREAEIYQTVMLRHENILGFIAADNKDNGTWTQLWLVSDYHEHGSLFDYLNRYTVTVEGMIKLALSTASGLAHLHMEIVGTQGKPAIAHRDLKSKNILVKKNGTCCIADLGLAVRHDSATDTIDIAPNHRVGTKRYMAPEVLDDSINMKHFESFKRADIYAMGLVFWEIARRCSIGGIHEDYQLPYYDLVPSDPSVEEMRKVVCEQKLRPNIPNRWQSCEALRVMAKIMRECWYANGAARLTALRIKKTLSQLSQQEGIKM
T7 sequence (P29597 whole entry): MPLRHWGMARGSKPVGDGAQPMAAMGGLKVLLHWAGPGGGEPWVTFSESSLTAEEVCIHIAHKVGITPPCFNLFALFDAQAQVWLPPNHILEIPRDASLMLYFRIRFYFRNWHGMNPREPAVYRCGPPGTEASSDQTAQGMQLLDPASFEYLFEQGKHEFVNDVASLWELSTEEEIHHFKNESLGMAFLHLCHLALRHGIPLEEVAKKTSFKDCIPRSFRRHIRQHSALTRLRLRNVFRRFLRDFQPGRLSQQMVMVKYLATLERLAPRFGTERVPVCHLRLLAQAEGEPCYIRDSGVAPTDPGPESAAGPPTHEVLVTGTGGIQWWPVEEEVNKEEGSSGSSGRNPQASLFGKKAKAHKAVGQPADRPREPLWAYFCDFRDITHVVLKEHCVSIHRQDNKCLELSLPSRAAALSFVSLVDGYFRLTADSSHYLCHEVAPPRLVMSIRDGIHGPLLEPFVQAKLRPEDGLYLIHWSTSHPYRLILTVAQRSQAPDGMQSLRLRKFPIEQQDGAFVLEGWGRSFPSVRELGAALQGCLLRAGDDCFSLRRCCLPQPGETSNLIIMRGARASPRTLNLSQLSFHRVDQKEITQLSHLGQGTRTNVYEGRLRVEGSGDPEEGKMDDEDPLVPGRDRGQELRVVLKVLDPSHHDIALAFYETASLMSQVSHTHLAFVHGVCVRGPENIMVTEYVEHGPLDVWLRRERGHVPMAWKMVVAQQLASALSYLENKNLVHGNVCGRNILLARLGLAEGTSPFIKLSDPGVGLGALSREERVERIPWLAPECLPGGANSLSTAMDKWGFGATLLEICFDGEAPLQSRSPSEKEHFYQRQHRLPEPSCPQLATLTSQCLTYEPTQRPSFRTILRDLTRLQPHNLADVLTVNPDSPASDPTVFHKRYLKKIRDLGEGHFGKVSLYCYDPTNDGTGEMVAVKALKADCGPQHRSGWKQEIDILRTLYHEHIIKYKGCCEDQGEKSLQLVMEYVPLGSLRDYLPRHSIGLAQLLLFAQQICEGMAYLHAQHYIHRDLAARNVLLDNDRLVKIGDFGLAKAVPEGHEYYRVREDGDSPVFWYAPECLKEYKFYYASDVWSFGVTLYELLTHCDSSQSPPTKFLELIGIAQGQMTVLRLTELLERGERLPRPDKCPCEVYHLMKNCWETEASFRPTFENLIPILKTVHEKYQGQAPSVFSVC
T4 sequence (P08069 31-1367): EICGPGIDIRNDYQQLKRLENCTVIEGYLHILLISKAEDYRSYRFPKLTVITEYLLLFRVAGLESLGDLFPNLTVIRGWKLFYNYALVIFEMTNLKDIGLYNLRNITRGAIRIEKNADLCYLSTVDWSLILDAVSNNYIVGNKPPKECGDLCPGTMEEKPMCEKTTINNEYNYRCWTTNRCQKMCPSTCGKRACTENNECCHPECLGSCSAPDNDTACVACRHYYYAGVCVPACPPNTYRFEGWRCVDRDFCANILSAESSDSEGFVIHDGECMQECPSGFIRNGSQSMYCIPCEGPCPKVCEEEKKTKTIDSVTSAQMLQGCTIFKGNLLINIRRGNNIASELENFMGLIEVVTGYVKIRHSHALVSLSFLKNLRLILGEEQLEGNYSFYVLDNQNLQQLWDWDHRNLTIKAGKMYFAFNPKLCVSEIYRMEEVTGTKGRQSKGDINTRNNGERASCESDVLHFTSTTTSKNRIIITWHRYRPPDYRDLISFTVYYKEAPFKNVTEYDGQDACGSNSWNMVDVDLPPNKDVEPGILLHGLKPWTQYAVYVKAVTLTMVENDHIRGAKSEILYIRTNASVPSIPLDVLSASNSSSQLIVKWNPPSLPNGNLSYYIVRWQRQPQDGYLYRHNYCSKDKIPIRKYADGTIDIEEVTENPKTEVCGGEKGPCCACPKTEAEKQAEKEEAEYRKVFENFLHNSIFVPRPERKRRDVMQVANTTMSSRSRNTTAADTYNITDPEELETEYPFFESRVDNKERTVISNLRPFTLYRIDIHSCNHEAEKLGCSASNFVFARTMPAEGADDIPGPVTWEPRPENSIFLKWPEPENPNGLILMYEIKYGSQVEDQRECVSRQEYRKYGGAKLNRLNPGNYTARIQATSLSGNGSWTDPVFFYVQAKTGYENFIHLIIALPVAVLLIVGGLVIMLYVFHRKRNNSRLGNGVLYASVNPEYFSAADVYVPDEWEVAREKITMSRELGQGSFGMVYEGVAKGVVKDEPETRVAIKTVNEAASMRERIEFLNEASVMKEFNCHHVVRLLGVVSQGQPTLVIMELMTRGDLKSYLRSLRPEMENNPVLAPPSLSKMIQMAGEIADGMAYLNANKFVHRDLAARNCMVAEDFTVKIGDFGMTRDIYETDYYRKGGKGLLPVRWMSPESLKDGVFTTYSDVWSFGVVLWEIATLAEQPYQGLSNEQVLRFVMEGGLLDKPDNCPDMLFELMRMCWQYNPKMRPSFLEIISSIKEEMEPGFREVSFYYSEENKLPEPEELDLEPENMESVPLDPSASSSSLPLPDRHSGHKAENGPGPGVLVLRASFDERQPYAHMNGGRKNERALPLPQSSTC
T3 sequence (Q9H093 whole entry): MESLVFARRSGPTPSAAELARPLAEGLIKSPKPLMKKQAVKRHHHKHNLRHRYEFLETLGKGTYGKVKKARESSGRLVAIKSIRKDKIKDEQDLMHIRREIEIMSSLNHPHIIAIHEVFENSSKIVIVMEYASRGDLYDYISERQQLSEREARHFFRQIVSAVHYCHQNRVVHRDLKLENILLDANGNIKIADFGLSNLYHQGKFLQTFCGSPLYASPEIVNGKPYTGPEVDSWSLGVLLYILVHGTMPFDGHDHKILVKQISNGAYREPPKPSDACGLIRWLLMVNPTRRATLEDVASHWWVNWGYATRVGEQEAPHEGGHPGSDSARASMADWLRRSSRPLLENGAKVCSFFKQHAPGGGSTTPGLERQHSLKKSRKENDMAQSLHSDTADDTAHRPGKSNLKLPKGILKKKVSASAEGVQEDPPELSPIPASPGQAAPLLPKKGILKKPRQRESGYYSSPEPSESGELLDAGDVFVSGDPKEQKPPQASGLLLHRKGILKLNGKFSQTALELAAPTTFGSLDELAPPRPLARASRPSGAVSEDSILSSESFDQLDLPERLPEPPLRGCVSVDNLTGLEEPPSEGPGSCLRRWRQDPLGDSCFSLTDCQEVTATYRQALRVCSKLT
T1 sequence (O00444 12-265 limits assumed): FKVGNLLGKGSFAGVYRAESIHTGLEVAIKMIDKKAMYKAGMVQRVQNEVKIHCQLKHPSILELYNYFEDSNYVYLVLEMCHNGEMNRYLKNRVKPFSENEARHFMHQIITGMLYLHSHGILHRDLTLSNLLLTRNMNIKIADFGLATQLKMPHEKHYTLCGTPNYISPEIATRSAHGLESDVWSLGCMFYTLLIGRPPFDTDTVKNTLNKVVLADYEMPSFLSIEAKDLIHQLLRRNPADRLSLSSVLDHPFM

CN(C)CCNC(=O)c1ccc(-c2ccc(-c3ccc(Cl)cc3)n2-c2ccccc2C(F)(F)F)cc1 (single isomer, unassigned) [Atropisomer A-2, 4-[5-(4-chlorophenyl)-1-[2-(trifluoromethyl)phenyl]pyrrol-2-yl]-N-[2-(dimethylamino)ethyl]benzamide]
Kp ([1]; male, CD-1, mouse, brain and plasma, 10 mg/kg, brain:plasma, oral dosing in mice, read-out: AUC B:P ratio): 3.3
Cmax [1, 9]: 693 ng/mL
Tmax [1, 9]: 8 h
half-life ([1]; mouse, po, brain exposure, p.o. 10 mg/kg, male CD-1 mice, read-out: T ½ (converted)): 12.1 h
AUC(0-t) ([1]; mouse, po, brain, p.o. 10 mg/kg, male CD-1 mice, read-out: AUClast brain): 20500 ng·h/mL
brain exposure (in words) ([1]; oral dosing in mice): high brain exposure
remaining binding at 3 µM (PLK4 catalytic domain): 100%
remaining binding at 3 µM (PLK1 catalytic domain): 97%
CI ([2]; 2 mq/Kq IV, male CD-1 mice, plasma): 20.5 mL/min/kg
F ([2]; 10 mq/Kq PO vs 2 mq/Kq IV, male CD-1 mice): 76%
AUC(0-inf) [2, 10]: 1620 ng·h/mL
Cmax [2, 10]: 278 ng/mL
half-life [2, 10]: 9 h
AUC(0-inf) [2, 11]: 6130 ng·h/mL
Cmax [2, 11]: 265 ng/mL
half-life [2, 11]: 10.7 h
AUC(0-t) ([2]; mouse, po, plasma, p.o. 10 mg/kg, male CD-1 mice, read-out: AUClast plasma): 6130 ng·h/mL
oral absorption / oral bioavailability (in words) ([2]; oral dosing in mice): highly absorbed
solubility [3]: < 5000 µg/mL
percent of control kinase binding to immobilized ligand at 3 µM [4]: 99%
percent of control kinase binding to immobilized ligand at 3 µM [5]: 100%
percent of control kinase binding to immobilized ligand at 3 µM [6]: 95%
percent of control kinase binding to immobilized ligand at 3 µM [7]: 100%
percent of control kinase binding to immobilized ligand at 3 µM [8]: 100%
